# Earlier results as cited in patent US20100113469A1, “COMBINATION THERAPY FOR THE TREATMENT-OF LOWER URINARY TRACT SYMPTOMS” (MERCK & CO., INC., priority 2007, published 2010).
# Legend:
# rats [1] = conditions: intravenous
# rats [2] = conditions: hyperreflexia paradigms, intravenous
# rats [3] = conditions: detrusor instability paradigm, oral
# patients = conditions: instilled directly into the bladder
# human bladders = conditions: in vitro
# rats [4] = tested on: rats
smiles,measurement,setting,value
C[C@H](Cc1ccc2c(c1)OC(C(=O)[O-])(C(=O)[O-])O2)NC[C@H](O)c1cccc(Cl)c1.[Na+].[Na+] [CL316243],bladder pressure,rats [1],reduces bladder pressure
same,bladder capacity,rats [1]; cystometric studies,increases bladder capacity
same,residual urine volume,rats [1]; cystometric studies,without increasing residual urine volume
same,voiding interval,rats [2],dose-dependently normalizes voiding interval
same,spontaneous bladder contractions,rats [3],dose-dependent inhibition of spontaneous bladder contractions
"COc1cc(CNC(=O)CCCC/C=C/C(C)C)ccc1O [Capsaicin, capsaicin]",patients with beneficial effects (i.e. increased bladder capacity),patients,~70%
CCCCCCNC(=O)Nc1ccc(S(=O)(=O)Nc2ccc(CCNC[C@H](O)COc3ccc(O)cc3)cc2)cc1 [L-755507],relaxation evoked in control versus obstructed human bladders,human bladders,equivalent
COc1ccccc1CC(=N)N1C[C@@H]2C(=O)CCC(c3ccccc3)(c3ccccc3)[C@@H]2C1 [RP 67580],volume threshold,"rats [4]; cyclophosphamide-induced bladder overactivity, i.t. vs i.v.","increased the volume threshold after i.t., but not i.v. administration"
C=C(C)[C@]12C[C@@H](C)[C@@]34O[C@](Cc5ccccc5)(O[C@@H]1[C@@H]3C=C(COC(=O)Cc1ccc(O)c(OC)c1)C[C@]1(O)C(=O)C(C)=C[C@@H]41)O2 [Resinferatoxin],potency relative to capsaicin,C-fibers,~100 fold
CC(=O)NC1(c2ccccc2)CCN(CC[C@H](CN(C)C(=O)c2ccccc2)c2ccc(Cl)c(Cl)c2)CC1 [SR 48968],response in cyclophosphamide-induced model,rats [4]; 10 nmol/rat,moderate response
Cc1ccc(-c2c3n(c(=O)c4ncccc24)CC[C@@H](C)CN(Cc2cc(C(F)(F)F)cc(C(F)(F)F)c2)C3=O)cc1 [TAK-637],carbachol or electrical field stimulation induced contractions,isolated bladder strips,had no effect
same,micturition reflex induced by topical application of capsaicin onto the bladder dome,"guinea pig; guinea pig, in vivo",inhibited the micturition reflex
same,distension-induced rhythmic bladder contractions,"guinea pig; guinea pig, systemic administration",decreased the number but not the amplitude
same,spinal vesico-vesical reflex induced by electrical stimulation of the proximal cut end of the pelvic nerve,guinea pig; spinal animals,inhibits the spinal vesico-vesical reflex
same,micturition reflex induced by electrical stimulation of the rostral brainstem near the locus coeruleus,decerebrate cats; 3 mg/kg i.v.,did not inhibit
same,voiding efficiency,"decerebrate cats; decerebrate cats, 0.1, 0.3, 1 and 3 mg/kg i.v.",without any significant reduction in voiding efficiency
same,maximal increase in bladder capacity,"decerebrate cats; decerebrate cats, 0.1, 0.3, 1 and 3 mg/kg i.v., dose-dependent",94%
